Reference: publication PMC4344250, “Characterization of the Major Light-Harvesting Complexes (LHCBM) of the Green Alga Chlamydomonas reinhardtii” (PLoS ONE, 2015)

Tests used:
[1] = target: T1, LHCBM9 (Chlamydomonas reinhardtii, UniProt Q8S3T9); test: in vitro reconstitution, Ni-affinity and sucrose gradient, HPLC of bound pigments; format: binding; conditions: C. reinhardtii pigment mix, Chl a/b 2.5; stoichiometry, not an affinity
Description: in vitro reconstitution, Ni-affinity and sucrose gradient, HPLC of bound pigments on LHCBM9

[2] = target: T2, LHCBM1 (Chlamydomonas reinhardtii, UniProt Q93VE0); test: as above; format: binding; conditions: C. reinhardtii pigment mix, Chl a/b 2.5, stoichiometry, not an affinity
T2 construct: gene LhcII-4
Description: in vitro reconstitution, Ni-affinity and sucrose gradient, HPLC of bound pigments on LHCBM1

[3] = target: T2, LHCBM1; test: as above; format: binding; conditions: C. reinhardtii pigment mix, measured only as Neo+loro sum
[4] = target: T1, LHCBM9; test: as above; format: binding; conditions: C. reinhardtii pigment mix; measured only as Neo+loro sum
[5] = target: LHCBM2/7 (type III major light-harvesting complex protein of Chlamydomonas reinhardtii) (Chlamydomonas reinhardtii); test: sucrose density gradient ultracentrifugation + non-denaturing isoelectrofocusing (composition by SDS-PAGE); thylakoids solubilised with alpha-DM; trimeric band (B3) of the sucrose gradient separated by flat-bed ndIEF (ampholites pH 3.5-5, 0.06% beta-DM, 4 °C, 15 h); fractions run again as single bands on sucrose gradients (0.06% beta-DM, 20 mM Hepes pH 7.5); proteins identified by Tricine SDS-PAGE
[6] = target: T3, LHCBM2 (Chlamydomonas reinhardtii, UniProt Q93WE0); test: in vitro reconstitution, Ni-affinity and sucrose gradient, HPLC of bound pigments; format: binding; conditions: C. reinhardtii pigment mix, Chl a/b 2.5; stoichiometry, not an affinity
T3 construct: gene LhcII-3
Description: in vitro reconstitution, Ni-affinity and sucrose gradient, HPLC of bound pigments on LHCBM2

[7] = target: T4, LHCBM6 (Chlamydomonas reinhardtii, UniProt A8J287); test: as above; format: binding; conditions: C. reinhardtii pigment mix, Chl a/b 2.5; stoichiometry, not an affinity
T4 construct: gene CHLRE_06g285250v5
Description: in vitro reconstitution, Ni-affinity and sucrose gradient, HPLC of bound pigments on LHCBM6

[8] = target: T5, LHCBM5 (Chlamydomonas reinhardtii, UniProt Q9ZSJ4); test: as above; format: binding; conditions: C. reinhardtii pigment mix, Chl a/b 2.5; stoichiometry, not an affinity
T5 construct: gene Lhcb3
Description: in vitro reconstitution, Ni-affinity and sucrose gradient, HPLC of bound pigments on LHCBM5

T1 sequence (Q8S3T9 entry or part of it): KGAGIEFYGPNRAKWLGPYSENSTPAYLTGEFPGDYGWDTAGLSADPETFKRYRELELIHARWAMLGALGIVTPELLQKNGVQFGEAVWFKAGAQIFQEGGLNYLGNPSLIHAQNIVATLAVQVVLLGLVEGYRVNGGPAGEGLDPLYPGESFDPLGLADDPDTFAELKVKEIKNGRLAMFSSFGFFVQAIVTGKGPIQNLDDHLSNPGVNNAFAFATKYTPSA
T2 sequence (Q93VE0 entry or part of it): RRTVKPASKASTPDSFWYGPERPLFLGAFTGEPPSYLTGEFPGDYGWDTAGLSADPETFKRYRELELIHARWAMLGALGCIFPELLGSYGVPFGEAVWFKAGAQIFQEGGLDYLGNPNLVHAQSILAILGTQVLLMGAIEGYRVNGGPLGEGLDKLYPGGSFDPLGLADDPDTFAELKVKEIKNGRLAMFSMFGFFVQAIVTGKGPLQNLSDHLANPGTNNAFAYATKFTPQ
T4 sequence (A8J287 entry or part of it): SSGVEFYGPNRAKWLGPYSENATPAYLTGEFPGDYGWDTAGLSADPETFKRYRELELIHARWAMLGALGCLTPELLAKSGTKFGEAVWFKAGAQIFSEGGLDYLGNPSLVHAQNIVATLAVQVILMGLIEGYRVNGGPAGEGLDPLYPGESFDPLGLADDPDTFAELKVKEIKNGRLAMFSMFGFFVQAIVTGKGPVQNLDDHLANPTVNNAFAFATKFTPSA
T5 sequence (Q9ZSJ4 entry or part of it): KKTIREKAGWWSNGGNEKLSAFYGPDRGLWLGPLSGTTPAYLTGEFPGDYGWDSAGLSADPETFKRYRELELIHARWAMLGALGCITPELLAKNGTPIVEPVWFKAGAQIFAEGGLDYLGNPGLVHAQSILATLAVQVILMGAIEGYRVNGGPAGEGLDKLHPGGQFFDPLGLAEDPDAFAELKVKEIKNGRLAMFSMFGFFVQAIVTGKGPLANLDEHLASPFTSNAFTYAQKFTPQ
T3 sequence (Q93WE0 entry or part of it): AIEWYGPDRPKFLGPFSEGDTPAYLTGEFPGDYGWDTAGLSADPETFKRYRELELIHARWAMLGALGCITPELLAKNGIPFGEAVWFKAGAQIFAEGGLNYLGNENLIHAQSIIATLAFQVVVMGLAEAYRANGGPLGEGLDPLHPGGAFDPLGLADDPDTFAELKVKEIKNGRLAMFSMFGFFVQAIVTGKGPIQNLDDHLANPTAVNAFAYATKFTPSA

CC(/C=C/C=C(C)/C=C/[C@@]12O[C@]1(C)C[C@@H](O)CC2(C)C)=C\C=C\C=C(C)\C=C\C=C(C)\C=C\[C@@]12O[C@]1(C)C[C@@H](O)CC2(C)C [violaxanthin]
Vio/mon [1]: 0.24±0.01 mol per monomer (normalised to 14 Chls)
Vio/mon ([2]; V1 site suggested): 0.11±0.01 mol per monomer (normalised to 14 Chls)

CC(=C/C=C/C(C)=C/C=C/C=C(C)/C=C/C=C(\C)C=C=C1C(C)(C)C[C@H](O)C[C@@]1(C)O)/C=C/[C@@]12O[C@]1(C)C[C@@H](O)CC2(C)C [neoxanthin]
in vitro reconstitution, Ni-affinity and sucrose gradient, HPLC of bound pigment ([3]; N1 site suggested): All LHCBMs contain lutein, loroxanthin and neoxanthin and a small amount of violaxanthin

CC1=C[C@H](O)CC(C)(C)[C@H]1/C=C/C(C)=C/C=C/C(C)=C/C=C/C=C(C)/C=C/C=C(/C=C/C1=C(C)C[C@@H](O)CC1(C)C)CO [loroxanthin]
in vitro reconstitution, Ni-affinity and sucrose gradient, HPLC of bound pigment ([3]; internal carotenoid site (L1 proposed)): All LHCBMs contain lutein, loroxanthin and neoxanthin and a small amount of violaxanthin
in vitro reconstitution, Ni-affinity and sucrose gradient, HPLC of bound pigment [4]: All LHCBMs contain lutein, loroxanthin and neoxanthin and a small amount of violaxanthin

LHCBM2/7 (type III major light-harvesting complex protein of Chlamydomonas reinhardtii) (natural protein)
stoichiometry N [5]: 3

CC1=C[C@H](O)CC(C)(C)[C@H]1/C=C/C(C)=C/C=C/C(C)=C/C=C/C=C(C)/C=C/C=C(C)/C=C/C1=C(C)C[C@@H](O)CC1(C)C [lutein]
Lut/mon [6]: 1.43±0.04 mol per monomer (normalised to 14 Chls)
Lut/mon [1]: 1.19±0.06 mol per monomer (normalised to 14 Chls)
Lut/mon [7]: 1.25±0.01 mol per monomer (normalised to 14 Chls)
Lut/mon [2]: 1.32±0.01 mol per monomer (normalised to 14 Chls)
Lut/mon [8]: 1.38±0.01 mol per monomer (normalised to 14 Chls)
